These results are taken from US12161750B2, “Antibiotic formulations for lower back pain” (Persica Pharmaceuticals Ltd., priority 2016, dated 2024).

What is called MIC is the smallest concentration in the dilution series that meets the test's criterion for growth inhibition.

In brackets after ≈: the same amount, converted by molar mass.

Data set [1] in a line: In vitro diffusion and release from poloxamer gel embedded in an agar disc (HPLC). It is filed as physicochemical. The note with it: 100 microliters of poloxamer formulation embedded in an agar disc. As for the experimental part: 100 microliters of poloxamer formulation were embedded in an agar disc. The release of loaded compound into media around the agar structure is measured. The assays mimic a disc containing a poloxamer injection. The mass of antibiotic released over 72 h was determined using high-performance liquid chromatography (HPLC).

For data set [2], the system named is S. aureus. The experiment in a line: Sheep model of S. aureus intradiscal infection, prophylactic dosing. In kind it is in vivo. The note with it: Example 3; 5 mg/disc on day 0, discreet infection with 10^3 S. aureus per disc on day 3, harvest 24 h after infection. The procedure: (§1) Approximately 1 hour, or at another selected time, after the first injection, each sheep is given a second injection of the test formulation or control formulation. Each disc that was previously successfully injected with bacteria is given a 0.1 ml (target volume) intradiscal injection. As part of the anaesthesia the animal is given analgesics (intra-muscular) in the form of meloxicam at the recommended dosage. This analgesic may be repeated if considered necessary by the named veterinary surgeon. In a prophylactic model, the order of administrations is reversed such that the first injection is a formulation of antibiotic or control and the second injection contains the bacterial inoculum. The time between administration of the antibiotic and bacteria may be hours, days, weeks or months.
The order of the injections may be reversed such that the first injection is a formulation of antibiotic and the second injection contains the bacterial inoculum. The time between administration of the antibiotic and bacteria may be hours, days, weeks or months. The second injection may be co-localised or discreet e.g. injected on the same side of the disc as the first injection or injected on the other side of the disc to the first injection respectively.
Discs were treated with vancomycin (5 mg/disc) on day 0 and on day 3 were discreetly infected with 10^3 S. aureus per disc. […]

For data set [3], the system named is S. aureus. The experiment in a line: Sheep model of S. aureus intradiscal infection, therapeutic dosing. In kind it is in vivo. The note with it: for discs sterilized: one hour post infection.
Text: A sheep model of S. aureus intradiscal infection has been developed to test the in vivo efficacy of antibiotic formulations. Male Charollais or Suffolk cross sheep, approximately 35-40 kg+ at the start of the study were housed according to Home Office guidelines under the Animals (Scientific Procedures) Act 1986 and acclimatised for at least 7 days with straw bedding and access to water. They were fed a Sheep concentrate diet without added antibiotics with additional forage (hay/straw) provided.
The bacterial inoculum (ATCC 29213) is prepared from frozen glycerol/phosphate-buffered saline stock at 2.5×10^6 CFU/ml by dilution to 2×10^4 CFU/ml:
In a therapeutic model, each sheep is anesthetised and given four 0.05 ml (target volume) intradiscal Injections at L1/L2, L2/L3, L3/L4 and L4/5 of S. aureus inoculum (1×10^3 cells/disc), one injection per disc.
as §1
A single 20G 3.5″ spinal needle is positioned directly into the edge of the nucleus pulposus of each disc. Following confirmation of positioning of the needles a second 25G 4.69″ needle primed with the dose solution is inserted into the first needle and the tip placed into the middle of the nucleus pulposus. Following confirmation of positioning of the second needles each disc is injected with the bacteria. The inner needles will then be removed. Just prior to the 1 hour post-dose bacteria time-point a new 25G 4.69″ needle, primed with the dose solution, is inserted into the 20G 3.5″ and positioned into the middle of the nucleus pulposus. The second treatment is dose given via this needle, 1 hour post the first dose.
Bacterial infection: A single 20G 3.5″ spinal needle is positioned directly into the edge of the nucleus pulposus of each disc. Following confirmation of positioning of the needles a second 25G 4.69″ needle primed with the dose solution is inserted into the first needle and the tip placed into the middle of the nucleus pulposus. Following confirmation of positioning of the second needles each disc is injected with the bacteria. The needles will then be removed. The animals are repositioned to access the other side of the spine.
Injection of formulation: A second 20G 3.5″ spinal needle is positioned directly into the edge of the nucleus pulposus on the opposite side to the first injection of each disc. Just prior to time-point for administration a new 25G 4.69″ needle, primed with the dose solution, is inserted into the 20G 3.5″ and positioned into the middle of the nucleus pulposus. The second treatment is dose given via this needle.
At set time-points post-dose the sheep is killed. The injected vertebrae discs are dissected out and the nucleus pulposus from each disc is removed. In addition, an extra untreated disc is sampled to provide control tissue. The disc is removed after all of the treated discs for the particular animal with care to ensure no contamination between control and treated samples.
The sheep intradiscal infection model of Example 1 was used to evaluate the in vivo efficacy of therapeutically dosed vancomycin.

The subject of data set [4] is MRSA (methicillin resistant Staphylococcus aureus). The note with it: formulated with poloxamer 407, sustained local delivery to the infected ear; cited from earlier work.
A further data set relates to Gram-positive bacteria. The note with it: cited from earlier work.

With `CN[C@H](CC(C)C)C(=O)N[C@H]1C(=O)N[C@@H](CC(N)=O)C(=O)N[C@H]2C(=O)N[C@H]3C(=O)N[C@H](C(=O)N[C@H](C(=O)O)c4cc(O)cc(O)c4-c4cc3ccc4O)[C@H](O)c3ccc(c(Cl)c3)Oc3cc2cc(c3O[C@@H]2O[C@H](CO)[C@@H](O)[C@H](O)[C@H]2O[C@H]2C[C@](C)(N)[C@H](O)[C@H](C)O2)Oc2ccc(cc2Cl)[C@H]1O` [Vancomycin], in data set [1], the “input antibiotic accounted for (released) after 72 h” value is on record as 92%. Further, in the data set on S. aureus [2], the “average reduction in bacterial burden” value was greater than 3 log10. Besides, the discs sterilized in the data set with S. aureus [3] (Example 2, discreet dosing, 5 mg vancomycin/disc) is recorded as 5 of 7; with S. aureus [3] (Example 2, discreet dosing, 20 mg vancomycin/disc), 3 of 7; in the data set on S. aureus [3] (Example 2, vancomycin in Omnipaque with 0.5% hyaluronic acid, co-localised dosing, within 24 h), “all the discs were effectively sterilized”. Moreover, the “reduction in average bacterial burden” value in the data set with S. aureus [3] (Example 2, discrete dosing groups) was no more than 3 log10. For the same compound, the sterile discs with S. aureus [3] (Example 9, discrete dosing) was 3 of 8. For the same compound, in the data set on S. aureus [3] (Example 9, discrete dosing from the other side of the disc), the “reduction in average disc bacterial burden” value is “did not significantly reduce average bacterial disc burden”. The “effect on MRSA otitis media” value in data set [4] is reported as “completely cures the otitis media caused by MRSA infection”.

Consider `CC(=O)NC[C@H]1CN(c2ccc(N3CCOCC3)c(F)c2)C(=O)O1` [Linezolid], for which the “input antibiotic accounted for (released) after 72 h” value in data set [1] stood at 57%. Further, the minimal inhibitory concentration (MIC) in the data set with Gram-positive bacteria is 4 µg/mL (≈ 11.9 µM).
